The test system of assay [1] is A431, MCF-7, HeLa, HepG2, PC3, SKOV3, A549, U251, K562, and Caco-2 tumor cells. Briefly: Transwell migration assay with serine/glycine at different levels. The format is cell-based. Conditions: low serine level or low glycine level compared to high serine and glycine levels.
Assay [2] shares this test system. Briefly: MTT assay, tumor cell growth with serine/glycine at different levels. The format is cell-based. The following applies: low serine level or low glycine level compared to high serine and glycine levels; 48 hours culture. On the technique in general: Formazan colour is commonly taken as a measure of viable cells.

On to `N[C@@H](CO)C(=O)O` [serine], for which the “migration capability (Transwell, metastasis %)” value in assay [1] is on record as “relatively high migration capability”. Besides, in assay [2], the “cell growth (MTT, growth %)” value is “grew slowly”.
The matching figures for `NCC(=O)O` [glycine]: “relatively high migration capability” and “grew slowly”.

For the origin of these results see patent US12370162B1 (Rplushealth Limited, priority 2024, dated 2025).
